These results are taken from US20250255848A1, “SUBSTITUTED 6,7-DIHYDRO-5H-BENZO[7]ANNULENE DERIVATIVES, PROCESSES FOR THEIR PREPARATION AND THERAPEUTIC USES THEREOF” (SANOFI, priority 2022, published 2025).

Molecules are shown by their SMILES. pIC50: −log10 of the molar value.

For the assay, the target named is ERα (Homo sapiens (Human), UniProt P03372). The assay can be described thus: Estrogen receptor degradation activity: breast cancer cell ERα in cell western assay. Type of assay: cell-based. The following applies: MCF7 cells; for % Degradation At 0.3 μM: 4 hours, normalised to fulvestrant 0.1 μM and DMSO; for pIC50: 4 hours post compound addition, concentration which degrades 50% of the estrogen receptor. On the procedure:
Said test involves measuring the in vitro degradation activity of the compounds of the Table 1a.
The measurements of the degradation activities were made using a breast cancer cell ERα in cell western assay as described hereunder.
MCF7 cells (ATCC) were seeded in 384 wells microplate (collagen coated) at a concentration of 10000 cells/30 μL per well in red phenol free MEM alpha medium (invitrogen) containing 5% charcoal dextran striped FBS. The following day, 9 points serial 1:5 dilution of each compound was added to the cells in 2.5 μL at final concentrations ranging from 0.3-0.0000018 μM (in table 2), or 0.1 μM for fulvestrant (using as positive control). At 4 hours post compound addition the cells were fixed by adding 25 μL of formalin (final concentration 5% formalin containing 0.1% triton) for 10 minutes at room temperature and then washed twice with PBS. Then, 50 μL of LI-COR blocking buffer containing 0.1% Triton was added to plate for 30 minutes at room temperature. LI-COR blocking buffer was removed and cells were incubated overnight at cold room with 50 μL anti-ER rabbit monoclonal antibody (Thermo scientific MA1-39540) diluted at 1:1000 in LI-COR blocking buffer containing 0.1% tween-20. Wells which were treated with blocking buffer but no antibody were used as background control. Wells were washed twice with PBS (0.1% tween-20) and incubated at 37° C. for 60 minutes in LI-COR (0.1% tween-20) containing goat anti-rabbit antibody Alexa 488 (1:1000) and Syto-64 a DNA dye (2 μM final concentration). Cells were then washed 3 times in PBS and scanned in ACUMEN explorer (TTP-Labtech). Integrated intensities in the green fluorescence and red fluorescence were measured to determine the levels of ERα and DNA respectively.
The degradation activity with respect to estrogen receptors in this test is given by the concentration which degrades 50% of the estrogen receptor (or IC50) in nM.
The % of ERα levels decrease were determined as follows: % inhibition=100*(1−(sample−fulvestrant:DMSO−fulvestrant)).

Sequence of ERα (P03372 whole entry): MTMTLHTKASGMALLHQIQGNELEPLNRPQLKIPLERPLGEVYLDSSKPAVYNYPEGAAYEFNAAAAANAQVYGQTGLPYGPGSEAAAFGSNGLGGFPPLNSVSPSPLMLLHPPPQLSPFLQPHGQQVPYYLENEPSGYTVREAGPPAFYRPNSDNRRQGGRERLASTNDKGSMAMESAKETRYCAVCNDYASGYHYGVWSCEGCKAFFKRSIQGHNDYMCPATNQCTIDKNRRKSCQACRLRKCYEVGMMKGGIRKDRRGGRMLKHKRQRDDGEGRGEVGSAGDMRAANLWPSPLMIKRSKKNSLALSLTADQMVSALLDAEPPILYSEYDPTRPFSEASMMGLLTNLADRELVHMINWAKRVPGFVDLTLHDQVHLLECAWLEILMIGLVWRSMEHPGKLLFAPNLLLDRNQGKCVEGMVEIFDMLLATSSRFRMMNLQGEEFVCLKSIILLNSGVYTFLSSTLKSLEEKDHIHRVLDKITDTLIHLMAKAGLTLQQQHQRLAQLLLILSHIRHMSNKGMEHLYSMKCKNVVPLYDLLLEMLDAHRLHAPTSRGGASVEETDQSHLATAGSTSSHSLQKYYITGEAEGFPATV

In the case of `Cc1ccc(C2=C(c3ccc(C=C4CN(CCCF)C4)cc3)c3ccc(C(=O)O)cc3CCC2)c(C(F)F)c1` [Compound 43, 8-(2-(difluoromethyl)-4-methylphenyl)-9-(4-((1-(3-fluoropropyl)azetidin-3-ylidene)methyl)phenyl)-6,7-dihydro-5H-benzo[7]annulene-3-carboxylic acid], the “% Degradation At 0.3 μM” value is reported as 91% and the pIC50 is 9.30.

With `COc1c(C)cccc1C1=C(c2ccc(C=C3CN(CCCF)C3)cc2)c2ccc(C(=O)O)cc2CCC1` [Compound 3, 9-(4-((1-(3-fluoropropyl)azetidin-3-ylidene)methyl)phenyl)-8-(2-methoxy-3-methylphenyl)-6,7-dihydro-5H-benzo[7]annulene-3-carboxylic acid], the “% Degradation At 0.3 μM” value came out at 90% and the pIC50 was 9.15.

In the case of `COc1ccc(C2=C(c3ccc(C=C4CN(CCCF)C4)cc3)c3ccc(C(=O)O)cc3CCC2)cc1OC` [Compound 82, 8-(3,4-dimethoxyphenyl)-9-(4-((1-(3-fluoropropyl)azetidin-3-ylidene)methyl)phenyl)-6,7-dihydro-5H-benzo[7]annulene-3-carboxylic acid], the “% Degradation At 0.3 μM” value was 95% and the pIC50 is 8.85.

Take `O=C(O)c1ccc2c(c1)CCCC(c1cccc(F)c1CF)=C2c1ccc(C=C2CN(CCCF)C2)cc1` [Compound 38, 8-(3-fluoro-2-(fluoromethyl)phenyl)-9-(4-((1-(3-fluoropropyl)azetidin-3-ylidene)methyl)phenyl)-6,7-dihydro-5H-benzo[7]annulene-3-carboxylic acid]: the “% Degradation At 0.3 μM” value is given as 90% and the pIC50 was 9.40.

As for `COc1cc(C)c(C2=C(c3ccc(C=C4CN(CCCF)C4)cc3)c3ccc(C(=O)O)cc3CCC2)c(C)c1` [Compound 18, 9-(4-((1-(3-fluoropropyl)azetidin-3-ylidene)methyl)phenyl)-8-(4-methoxy-2,6-dimethylphenyl)-6,7-dihydro-5H-benzo[7]annulene-3-carboxylic acid], the “% Degradation At 0.3 μM” value came to 91% and the pIC50 was 9.22.

Regarding `CCc1cccc(C2=C(c3ccc(C=C4CN(CCCF)C4)cc3)c3ccc(C(=O)O)cc3CCC2)c1C(F)(F)F` [Compound 8, 8-(3-ethyl-2-(trifluoromethyl)phenyl)-9-(4-((1-(3-fluoropropyl)azetidin-3-ylidene)methyl)phenyl)-6,7-dihydro-5H-benzo[7]annulene-3-carboxylic acid], the “% Degradation At 0.3 μM” value worked out at 93% and the pIC50 is 9.10.

As for `Cc1ccc(C(F)(F)F)c(C)c1C1=C(c2ccc(C=C3CN(CCCF)C3)cc2)c2ccc(C(=O)O)cc2CCC1` [Compound 84, 8-(2,6-dimethyl-3-(trifluoromethyl)phenyl)-9-(4-((1-(3-fluoropropyl)azetidin-3-ylidene)methyl)phenyl)-6,7-dihydro-5H-benzo[7]annulene-3-carboxylic acid], the “% Degradation At 0.3 μM” value is on record as 91% and the pIC50 was 9.22.

Regarding `Cc1cc(C)c(C2=C(c3ccc(C=C4CN(CCCF)C4)cc3)c3ccc(C(=O)O)cc3CCC2)c(C)c1` [Compound 10, 9-(4-((1-(3-fluoropropyl)azetidin-3-ylidene)methyl)phenyl)-8-mesityl-6,7-dihydro-5H-benzo[7]annulene-3-carboxylic acid], the “% Degradation At 0.3 μM” value is given as 93% and the pIC50 was 9.30.

In the case of `Cc1cccc(C(F)(F)F)c1C1=C(c2ccc(C=C3CN(CCCF)C3)cc2)c2ccc(C(=O)O)cc2CCC1` [Compound 1, 9-(4-((1-(3-fluoropropyl)azetidin-3-ylidene)methyl)phenyl)-8-(2-methyl-6-(trifluoromethyl)phenyl)-6,7-dihydro-5H-benzo[7]annulene-3-carboxylic acid], the “% Degradation At 0.3 μM” value is on record as 92% and the pIC50 was 9.52.
